Test results: the supplement of paper PMC8671470

What was measured:
Details in all cases: 72 h
HL-60 = experiment: cell viability (% survival relative to DMSO control); higher = less cytotoxic
Procedure, shortened: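 Four-parameter log-logistic fits in drc and PharmacoGx supplied area under the curve where it is given. Underlying viability came from CellTiter-Glo, normalised to DMSO and proteasome-inhibitor wells, with the proteasome inhibitor at 10 μM. HL-60 cells in RPMI 1640 plus 10% FBS had been rescreened against the full library at five tenfold concentrations of 1–10,000 nM, in duplicate on 384-well plates, with DMSO or 100 nM of one of three metabolic inhibitors, for 72 h at 37 °C, 5% CO2.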

[1] = system: myeloid leukemia patient primary cells Pat.12; experiment: cell viability (% survival relative to DMSO control); higher = less cytotoxic
Procedure, shortened: (§1)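 Seventy compounds were pre-printed on 384-well plates at five tenfold concentrations between 1 and 10,000 nM, in duplicate. Thawed mononuclear cells purified by Ficoll from AML or CML patients were added at 10,000 cells/well in RPMI 1640 with 10% FBS for 72 h. Viability by CellTiter-Glo was normalised to DMSO and 10 μM proteasome-inhibitor wells. Where stated, area under the curve was taken from log-logistic fits made with the drc and PharmacoGx R packages, each fit having four parameters.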

[2] = system: myeloid leukemia patient primary cells Pat.9; experiment: as above
Procedure, shortened: as §1

[3] = system: myeloid leukemia patient primary cells Pat.15; experiment: as above
Procedure, shortened: as §1

[4] = system: myeloid leukemia patient primary cells Pat.4; experiment: as above
Procedure, shortened: as §1

[5] = system: myeloid leukemia patient primary cells Pat.8; experiment: as above
Procedure, shortened: as §1

[6] = system: myeloid leukemia patient primary cells Pat.11; experiment: as above
Procedure, shortened: as §1

[7] = system: myeloid leukemia patient primary cells Pat.13; experiment: as above
Procedure, shortened: as §1

[8] = system: myeloid leukemia patient primary cells Pat.3; experiment: as above
Procedure, shortened: as §1

[9] = system: myeloid leukemia patient primary cells Pat.10; experiment: as above
Procedure, shortened: as §1

[10] = system: myeloid leukemia patient primary cells Pat.1; experiment: as above
Procedure, shortened: as §1

[11] = system: myeloid leukemia patient primary cells Pat.14; experiment: as above
Procedure, shortened: as §1

[12] = system: myeloid leukemia patient primary cells Pat.5; experiment: as above
Procedure, shortened: as §1

[13] = system: myeloid leukemia patient primary cells Pat.7; experiment: as above
Procedure, shortened: as §1

[14] = system: myeloid leukemia patient primary cells Pat.2; experiment: as above
Procedure, shortened: as §1

K-562 = experiment: cell viability (% survival relative to DMSO control, bortezomib = 0%); higher = less cytotoxic
Procedure, shortened: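 Percent survival figures are means of duplicate wells. They were obtained by CellTiter-Glo luminescence after 10 AML and 5 CML cell lines spent 72 h at 37 °C with 5% CO2 in 384-well plates with compounds at 1, 10, 100, 1000 or 10000 nM. Vehicle was set to 100% and a 10 µM positive control to 0%.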

N#CC(C#N)=NNc1ccc(OC(F)(F)F)cc1 [FCCP]
cell viability [%], HL-60
Details	0.001 µM	0.01 µM	0.1 µM	1 µM	10 µM
co-treatment: AZD3965 100 nM	101	102	82.8	110	8.55
co-treatment: DMSO vehicle	99.6	94.6	99.9	104	10.3
co-treatment: GSK2194069 100 nM	97.2	102	80.2	102.3	13.8
co-treatment: pictilisib 100 nM	98.3	98.5	94.6	104	9.69

cell viability [%]
Details	1 nM	10 nM	100 nM	1000 nM	10000 nM
K-562	109	93.4	92.1	74	1.97
[1]	> 100	93.3	99.7	89.5	36.1
[2]	54	63.1	82.9	3.45	0.492
[3]	91.2	99.1	94.5	81.5	3.23
[4]	89	90.4	97.9	53.6	4.18
[5]	71.4	91.6	82.1	89.1	3.73
[6]	98	97.3	> 100	82.4	9.9
[7]	85	> 100	89.8	59.4	4.66
[8]	88.5	82.9	94.9	3.06	< 0
[9]	66.5	64	50.5	7.03	2.16
[10]	90.1	89.9	> 100	59.9	5.44
[11]	67.3	93.7	94.6	17.4	0.937
[12]	19.1	52.4	14.8	< 0	3.45
[13]	82.8	82.5	93.6	< 0	< 0
[14]	92.5	90.8	> 100	95.3	30

O=C(C1CC1)N1CC[C@@H](C=C2NNC(=O)N2c2ccc(-c3ccc4occc4c3)cc2)C1
cell viability [%], HL-60
Details	0.001 µM	0.01 µM	0.1 µM	1 µM	10 µM
co-treatment: AZD3965 100 nM	101	104	81.6	76.9	68.9
co-treatment: DMSO vehicle	101	105	95.1	92	85.8
co-treatment: GSK2194069 100 nM	96.3	103.6	92	86.9	82.4
co-treatment: pictilisib 100 nM	97.7	104	92.53	76.6	73.1

cell viability [%]
Details	1 nM	10 nM	100 nM	1000 nM	10000 nM
K-562	95.4	78.1	73	79	54.4
[1]	95.4	92.8	> 100	89	84.1
[2]	95.6	80.9	87.2	45.5	33.2
[3]	89.4	95.2	95.7	90.3	84
[4]	79.7	87.2	90.8	92.1	71.6
[5]	85.5	95.4	74	92.2	73.2
[6]	94.6	98	99.7	91.5	88
[7]	85.5	96.1	92.9	86.5	80.1
[8]	93.5	> 100	84.2	78.8	77.1
[9]	80.8	46.1	50.2	67	47.8
[10]	87	89	> 100	96.2	79.7
[11]	92.5	91.4	96.2	77.3	79.5
[12]	73	> 100	72.3	35.3	17.1
[13]	> 100	97.1	81.9	51.6	71.6
[14]	> 100	99	> 100	95.2	91.7

Cc1c(-c2ccc(-c3ccccc3F)cc2)nc2ccc(F)cc2c1C(=O)O [Brequinar]
cell viability [%], HL-60
Details	0.001 µM	0.01 µM	0.1 µM	1 µM	10 µM
co-treatment: AZD3965 100 nM	98.8	99.3	78.9	84.4	68.2
co-treatment: DMSO vehicle	99.9	98.8	81.4	87.8	81.3
co-treatment: GSK2194069 100 nM	96.8	103	84.9	86.9	76.8
co-treatment: pictilisib 100 nM	91.4	101	86.8	87.3	93

cell viability [%]
Details	1 nM	10 nM	100 nM	1000 nM	10000 nM
K-562	98.1	89.2	92.9	103	40.4
[1]	22	99	93.2	98.4	95
[2]	88.1	59.6	36.9	50	10.6
[3]	91.1	85.4	87.7	98.9	87.7
[4]	0.431	90.6	94.7	87.5	86.4
[5]	91.5	82	78	97.6	88.4
[6]	97.9	> 100	> 100	> 100	97.7
[7]	> 100	93.4	96.6	94.2	84.6
[8]	> 100	58	30	33.1	20.7
[9]	58.9	81.4	56.6	77.9	57.7
[10]	93.1	89.3	97.5	92.2	88.6
[11]	89.4	81.1	73.4	65.6	32.3
[12]	66.1	60.8	47.9	33.1	6.89
[13]	81.2	87.1	62	60.6	55.3
[14]	> 100	92.7	97.1	95.2	99.9

C=C(C)[C@H]1Cc2c(ccc3c2O[C@@H]2COc4cc(OC)c(OC)cc4[C@@H]2C3=O)O1 [Rotenone]
cell viability [%], HL-60
Details	0.001 µM	0.01 µM	0.1 µM	1 µM	10 µM
co-treatment: AZD3965 100 nM	96.5	99.7	83	83.4	7.8
co-treatment: DMSO vehicle	97.7	103	86.415	30.8	10.4
co-treatment: GSK2194069 100 nM	86.2	91.1	78.3	35.8	12.9
co-treatment: pictilisib 100 nM	83.6	74.5	83.9	34.5	9.82

cell viability [%]
Details	1 nM	10 nM	100 nM	1000 nM	10000 nM
K-562	88.9	66.4	30.6	3.39	2.57
[1]	94.8	89.2	66.1	64.9	49.5
[2]	1.24	50.1	10.8	1.6	< 0
[3]	44.9	66	43.9	24.3	37.6
[4]	79.9	89.3	88.5	62.3	11.7
[5]	70.8	79.3	55.6	36.8	3.96
[6]	88.5	93.3	94.2	85.5	73.9
[7]	62.5	80.5	57.6	17.2	11.9
[8]	48.6	57.4	35.7	25.3	18
[9]	38.7	75.5	47.7	30	20.9
[10]	75.9	81.3	72.8	68.4	34.8
[11]	30.2	71	50	30.8	10.7
[12]	5.46	0.265	0.912	0.265	1.18
[13]	5.63	79.4	54.6	36.3	1.21
[14]	62.7	86.5	68.7	61.5	57.5
